From paper PMC8445441, “Elucidating the mechanism by which synthetic helper peptides sensitize Pseudomonas aeruginosa to multiple antibiotics” (PLoS Pathogens, 2021)
Where two headings read alike, the source gives them in different places.

Legend:
P. aeruginosa AUMC-Pa-2 = conditions: strain AUMC-Pa-2; antibiotic + D-11 (MICb/MICbc 64/4)
Procedure, shortened: (§1)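 Two-fold serial dilutions in MHB received an equal volume of bacteria (suspension about 1 × 10^6 CFU/mL). Plates were held 18 h at 37 °C, then read visually for growth. Triplicate, CLSI-based.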

P. aeruginosa AUMC-Pa-1 = conditions: strain AUMC-Pa-1; antibiotic + D-11 (MICb/MICbc 128/4)
Procedure, shortened: as §1

P. aeruginosa PAK = test: microbe, parasite or virus in culture; parameters: MICa: MIC of the antibiotic / MICac: MIC of the antibiotic in the combination: unit not given beside the values
Procedure, shortened: as §1

P. aeruginosa NR-31041 = test: microbe, parasite or virus in culture; parameters: MICa: MIC of the antibiotic / MICac: MIC of the antibiotic in the combination: unit not given beside the values
Procedure, shortened: as §1

P. aeruginosa ATCC27853 = test: microbe, parasite or virus in culture; parameters: MICa: MIC of the antibiotic / MICac: MIC of the antibiotic in the combination: unit not given beside the values
Procedure, shortened: as §1

P. aeruginosa NR-31040 = test: microbe, parasite or virus in culture; parameters: MICa: MIC of the antibiotic / MICac: MIC of the antibiotic in the combination: unit not given beside the values
Procedure, shortened: as §1

P. aeruginosa PA14 = test: microbe, parasite or virus in culture; parameters: MICa: MIC of the antibiotic / MICac: MIC of the antibiotic in the combination: unit not given beside the values
Procedure, shortened: as §1

P. aeruginosa AUMC-Pa-6 = test: microbe, parasite or virus in culture
Procedure, shortened: as §1

P. aeruginosa AUMC-Pa-3 = test: microbe, parasite or virus in culture
Procedure, shortened: as §1

P. aeruginosa PAO1 = test: microbe, parasite or virus in culture; conditions: PAO1; for FICI / MICac: the MIC for the antibiotic in the combination: S3 Table
Procedure, shortened: as §1

P. aeruginosa AUMC-Pa-4 = test: microbe, parasite or virus in culture
Procedure, shortened: as §1

P. aeruginosa AUMC-Pa-5 = test: microbe, parasite or virus in culture
Procedure, shortened: as §1

[1] = test system: clinical P. aeruginosa isolates; test: microbe, parasite or virus in culture; conditions: Pseudomonas aeruginosa, 18 h, antibiotic alone
Procedure, shortened: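 Broth microdilution per CLSI in MHB, two-fold drug dilutions mixed with an equal volume of bacteria at about 1 × 10^6 CFU/mL. After 18 h at 37 °C, MIC taken as the lowest concentration with no visible growth; run in triplicate.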

P. aeruginosa HM-214 = conditions: strain HM-214; antibiotic + D-11 (MICb/MICbc 128/4)
Procedure, shortened: as §1

With `COc1cc(Cc2cnc(N)nc2N)cc(OC)c1OC` [Trimethoprim] the FICI (P. aeruginosa AUMC-Pa-2) was 0.188, the FICI (P. aeruginosa AUMC-Pa-1) was 0.156 and the MIC (P. aeruginosa PAK; Pseudomonas aeruginosa, 18 h, read-out: MICa: MIC of the antibiotic) was greater than 128 µM. For the same molecule, the FICI (P. aeruginosa PAK; strain PAK, antibiotic + D-11 (MICb/MICbc 64/4)) was 0.188, the “MICac: MIC of the antibiotic in the combination” value (“MICac: MIC of the antibiotic” below) (P. aeruginosa PAK; strain PAK, with D-11 at MICbc 4, unit not given) was 32 and the MIC (P. aeruginosa NR-31041; Pseudomonas aeruginosa, NR31041, 18 h, read-out: MICa: MIC of the antibiotic) was greater than 128 µM. For the same molecule, the FICI (P. aeruginosa NR-31041; strain NR-31041, antibiotic + D-11 (MICb/MICbc 64/4)) was 0.125, the “MICac: MIC of the antibiotic” value (P. aeruginosa NR-31041; strain NR-31041, with D-11 at MICbc 4, unit not given) was 16 and the MIC (P. aeruginosa ATCC27853; Pseudomonas aeruginosa, ATCC27853, 18 h, read-out: MICa: MIC of the antibiotic) was greater than 128 µM. The FICI (P. aeruginosa ATCC27853; strain ATCC27853, antibiotic + D-11 (MICb/MICbc 32/4)) was 0.250, the “MICac: MIC of the antibiotic” value (P. aeruginosa ATCC27853; strain ATCC27853, with D-11 at MICbc 4, unit not given) was 32 and the MIC (P. aeruginosa NR-31040; Pseudomonas aeruginosa, NR31040, 18 h, read-out: MICa: MIC of the antibiotic) was greater than 128 µM. The FICI (P. aeruginosa NR-31040; strain NR-31040, antibiotic + D-11 (MICb/MICbc 128/4)) was 0.281, the “MICac: MIC of the antibiotic” value (P. aeruginosa NR-31040; strain NR-31040, with D-11 at MICbc 4, unit not given) was 64 and the MIC (P. aeruginosa PA14; Pseudomonas aeruginosa, PA14, 18 h, read-out: MICa: MIC of the antibiotic) was greater than 128 µM. The FICI (P. aeruginosa PA14; strain PA14, antibiotic + D-11 (MICb/MICbc 128/4)) was 0.156, the “MICac: MIC of the antibiotic” value (P. aeruginosa PA14; strain PA14, with D-11 at MICbc 4, unit not given) was 32 and the MIC (P. aeruginosa AUMC-Pa-6; Pseudomonas aeruginosa, AUMCPA6, 18 h, read-out: MICa: MIC of the antibiotic) was greater than 128 µM. The FICI (P. aeruginosa AUMC-Pa-6; strain AUMC-Pa-6, antibiotic + D-11 (MICb/MICbc 64/4)) was 0.313, the “MICac: MIC of the antibiotic” value (P. aeruginosa AUMC-Pa-6; strain AUMC-Pa-6, with D-11 at MICbc 4, unit not given) was 64 and the MIC (P. aeruginosa AUMC-Pa-3; Pseudomonas aeruginosa, AUMCPA3, 18 h, read-out: MICa: MIC of the antibiotic) was greater than 128 µM. For the same molecule, the FICI (P. aeruginosa AUMC-Pa-3; strain AUMC-Pa-3, antibiotic + D-11 (MICb/MICbc 128/4)) was 0.094, the “MICac: MIC of the antibiotic” value (P. aeruginosa AUMC-Pa-3; strain AUMC-Pa-3, with D-11 at MICbc 4, unit not given) was 16 and the MIC (P. aeruginosa PAO1; Pseudomonas aeruginosa, PAO1, 18 h, read-out: MICa: the MIC of antibiotics, S3 Table, antibiotic alone) was greater than 128 µM. For the same molecule, the FICI (P. aeruginosa PAO1; antibiotic + 2 μM D-11) was 0.188, the FICI (P. aeruginosa PAO1; antibiotic + 4 μM D-11) was 0.188 and the “MICac: the MIC for the antibiotic in the combination” value (P. aeruginosa PAO1; with 2 μM D-11) was 32 µM. For the same molecule, the “MICac: the MIC for the antibiotic in the combination” value (P. aeruginosa PAO1; with 4 μM D-11) was 16 µM, the MIC (P. aeruginosa AUMC-Pa-4; Pseudomonas aeruginosa, AUMCPA4, 18 h, read-out: MICa: MIC of the antibiotic) was greater than 128 µM and the FICI (P. aeruginosa AUMC-Pa-4; strain AUMC-Pa-4, antibiotic + D-11 (MICb/MICbc 128/4)) was 0.156. The “MICac: MIC of the antibiotic” value (P. aeruginosa AUMC-Pa-4; strain AUMC-Pa-4, with D-11 at MICbc 4, unit not given) was 16, the MIC (P. aeruginosa AUMC-Pa-5; Pseudomonas aeruginosa, AUMCPA5, 18 h, read-out: MICa: MIC of the antibiotic) was greater than 128 µM and the FICI (P. aeruginosa AUMC-Pa-5; strain AUMC-Pa-5, antibiotic + D-11 (MICb/MICbc 64/4)) was 0.563. The “MICac: MIC of the antibiotic” value (P. aeruginosa AUMC-Pa-5; strain AUMC-Pa-5, with D-11 at MICbc 4, unit not given) was >128/128, the MIC ([1]; read-out: Antibiotic sensibility (MIC) of clinical P. aeruginosa isolate AUMC-Pa-1, strain AUMC-Pa-1) was greater than 128 µM and the MIC ([1]; read-out: Antibiotic sensibility (MIC) of clinical P. aeruginosa isolate AUMC-Pa-2, strain AUMC-Pa-2) was greater than 128 µM. It also gave an MIC ([1]; read-out: Antibiotic sensibility (MIC) of clinical P. aeruginosa isolate AUMC-Pa-3, strain AUMC-Pa-3) greater than 128 µM, an MIC ([1]; read-out: Antibiotic sensibility (MIC) of clinical P. aeruginosa isolate AUMC-Pa-4, strain AUMC-Pa-4) greater than 128 µM and an MIC ([1]; read-out: Antibiotic sensibility (MIC) of clinical P. aeruginosa isolate AUMC-Pa-5, strain AUMC-Pa-5) greater than 128 µM. The MIC ([1]; read-out: Antibiotic sensibility (MIC) of clinical P. aeruginosa isolate AUMC-Pa-6, strain AUMC-Pa-6) was greater than 128 µM, the MIC ([1]; read-out: Antibiotic sensibility (MIC) of clinical P. aeruginosa isolate HM-214, strain HM-214) was greater than 128 µM and the MIC ([1]; read-out: Antibiotic sensibility (MIC) of clinical P. aeruginosa isolate NR-31040, strain NR-31040) was greater than 128 µM. The MIC ([1]; read-out: Antibiotic sensibility (MIC) of clinical P. aeruginosa isolate NR-31041, strain NR-31041) was greater than 128 µM and the FICI (P. aeruginosa HM-214) was 0.281.
